Laboratory results taken from ChEMBL document CHEMBL2203043, “Carbonic anhydrase inhibitors. Regioselective synthesis of novel series 1-substituted 1,4-dihydro-4-oxo-3-pyridinesulfonamides and their inhibition of the human cytosolic isozymes I and II and transmembrane cancer-associated isozymes IX and XII” (Eur J Med Chem, 2012).

Species on record: Homo sapiens
Test: Selectivity ratio of Ki for human CA2 to Ki for human CA9

Row | SMILES | Ratio Ki
1 | CC(=O)Nc1nnc(S(N)(=O)=O)s1 | 0.33
2 | NS(=O)(=O)c1cc(Cl)c(Cl)c(S(N)(=O)=O)c1 | 0.33
3 | CCOc1ccc2nc(S(N)(=O)=O)sc2c1 | 0.33
4 | CC(=O)/N=c1/sc(S(N)(=O)=O)nn1C | 0.33
5 | NS(=O)(=O)c1ccc(S(=O)(=O)Nc2cccc3c(Cl)c[nH]c23)cc1 | 0.33

Target: Carbonic anhydrase 9 (Homo sapiens, UniProt Q16790)
Test: Inhibition of human CA9 after 15 mins by stopped-flow CO2 hydrase assay

Row | SMILES | Ki [nM]
6 | Cc1cccc(C)c1NC(=O)Cn1ccc(=O)c(S(N)(=O)=O)c1 | 17.3
7 | CC1=NN(c2nc(N)nc(Cn3ccc(=O)c(S(N)(=O)=O)c3)n2)CC1 | 77.8
8 | NS(=O)(=O)c1cn(CC(=O)NS(=O)(=O)c2ccc([N+](=O)[O-])cc2)ccc1=O | 65.2
9 | NS(=O)(=O)c1cn(Cc2nc3ccccc3c(=O)n2-c2ccc(Cl)cc2)ccc1=O | 71.2
10 | Cc1ccc(-n2c(Cn3ccc(=O)c(S(N)(=O)=O)c3)nc3ccccc3c2=O)cc1 | 70.3
11 | NS(=O)(=O)c1cn(CC(=O)NS(=O)(=O)c2ccc(Cl)cc2)ccc1=O | 38.6
12 | N#CCCCn1ccc(=O)c(S(N)(=O)=O)c1 | 67.2
13 | Nc1nc(Cn2ccc(=O)c(S(N)(=O)=O)c2)nc(N2CCOCC2)n1 | 72.5
14 | NS(=O)(=O)c1cn(CC2CC2)ccc1=O | 85.1
15 | COC(=O)c1ccccc1NC(=O)Cn1ccc(=O)c(S(N)(=O)=O)c1 | 86.4
16 | NS(=O)(=O)c1cn(CC(=O)NNC(=O)c2ccco2)ccc1=O | 56.1
17 | NS(=O)(=O)c1cn(CC(=O)Nc2cccc([N+](=O)[O-])c2)ccc1=O | 33.4
18 | CCOC(=O)Cn1ccc(=O)c(S(N)(=O)=O)c1 | 60.1
19 | NS(=O)(=O)c1cn(Cc2nc3ccccc3c(=O)n2-c2ccccc2)ccc1=O | 76.2
20 | NS(=O)(=O)c1cn(CC(=O)NS(=O)(=O)c2ccccc2Cl)ccc1=O | 29.7
21 | Cc1ccc(S(=O)(=O)NNC(=O)Cn2ccc(=O)c(S(N)(=O)=O)c2)cc1 | 11.8
22 | Cc1noc(C)c1Cn1ccc(=O)c(S(N)(=O)=O)c1 | 23.1
23 | CCN(c1ccccc1)c1nc(N)nc(Cn2ccc(=O)c(S(N)(=O)=O)c2)n1 | 50.1
24 | NS(=O)(=O)c1cn(CC(=O)Nc2ccc(Cl)cc2)ccc1=O | 93.4
25 | CN(C)c1nc(N)nc(Cn2ccc(=O)c(S(N)(=O)=O)c2)n1 | 16.5
26 | CC1=NN(c2nc(N)nc(Cn3ccc(=O)c(S(N)(=O)=O)c3)n2)C(C)(C)C1 | 66.3
27 | NS(=O)(=O)c1cn(CCO)ccc1=O | 54.7
28 | NS(=O)(=O)c1cn(CC(=O)Nc2ccc(Cl)c([N+](=O)[O-])c2)ccc1=O | 60.6
